Experimental data published in ChEMBL document CHEMBL5346892, “Design and synthesis of benzochromene derivatives as AcrB inhibitors for the reversal of bacterial multidrug resistance” (Eur J Med Chem, 2023).

Experiments:
Type in all cases: functional
Escherichia coli [1] = assay: Synergistic antibacterial activity against wild type Escherichia coli BW25113 assessed as fold decrease in minocycline MIC at 128 microg/ml incubated for 18 hrs by checkboard based microplate reader analysis; conditions: dose 128 µg/ml
Escherichia coli [2] = assay: Synergistic antibacterial activity against wild type Escherichia coli BW25113 assessed as erythromycin MIC at 0.5 microg/ml incubated for 18 hrs in presence of colistin by broth dilution assay; conditions: dose 0.5 µg/ml
Escherichia coli [3] = assay: Synergistic antibacterial activity against wild type Escherichia coli BW25113 assessed as erythromycin MIC at 2 microg/ml incubated for 18 hrs in presence of colistin by broth dilution assay; conditions: dose 2 µg/ml
Escherichia coli [4] = assay: Synergistic antibacterial activity against wild type Escherichia coli BW25113 assessed as levofloxacin MIC at 1 microg/ml incubated for 18 hrs in presence of colistin by broth dilution assay; conditions: dose 1 µg/ml
Escherichia coli [5] = assay: Synergistic antibacterial activity against wild type Escherichia coli BW25113 assessed as levofloxacin MIC at 2 microg/ml incubated for 18 hrs in presence of colistin by broth dilution assay; conditions: dose 2 µg/ml
Escherichia coli [6] = assay: Synergistic antibacterial activity against wild type Escherichia coli BW25113 assessed as levofloxacin MIC at 128 microg/ml incubated for 18 hrs in presence of colistin by broth dilution assay; conditions: dose 128 µg/ml

## CC1(C)CCc2c(C(=O)N3CCOCC3)cc3c(OCCCOc4cccc(C(=O)O)c4)cccc3c2O1
Escherichia coli [1]
  fold change (FC): 4

## CC1(C)CCc2c(C(=O)N3CCOCC3)cc3c(OCCN4CCN(c5ccccc5)CC4)cccc3c2O1
Escherichia coli [2]
  MIC: 16 µg/mL
Escherichia coli [3]
  MIC: 8 µg/mL
Escherichia coli [4]
  MIC: 0.032 µg/mL
Escherichia coli [5]
  MIC: 0.032 µg/mL

## COc1ccc(OCCCOc2cccc3c4c(c(C(=O)N5CCOCC5)cc23)CCC(C)(C)O4)cc1
Escherichia coli [6]
  MIC: 0.032 µg/mL
